Measured values reported in patent publication US20240336601A1 (Chulalongkorn University, priority 2020, published 2024).

What was measured:
[1] = target: interaction between PD-1 and PD-L1 (Homo sapiens, UniProt Q9NZQ7); test: PD-1/PD-L1 protein-protein interaction assay (ALPHA); assay type: binding; conditions: 2 nM His-tagged human PD-L1, 0.6 nM PD-1-Fc, AlphaScreen
PD-1/PD-L1 interaction = target: T1, PD-1/PD-L1 interaction (Homo sapiens, UniProt Q9NZQ7); test: PD-1/PD-L1 blockage cell-based bioassay (Jurkat NFAT luciferase / CHO-PDL1 co-culture); conditions: Jurkat NFAT cells co-cultured with CHO-PDL1 cells, 6 h, luminescence
T1 construct: expressed in transfected cells
T1 sequence (Q9NZQ7 19-290): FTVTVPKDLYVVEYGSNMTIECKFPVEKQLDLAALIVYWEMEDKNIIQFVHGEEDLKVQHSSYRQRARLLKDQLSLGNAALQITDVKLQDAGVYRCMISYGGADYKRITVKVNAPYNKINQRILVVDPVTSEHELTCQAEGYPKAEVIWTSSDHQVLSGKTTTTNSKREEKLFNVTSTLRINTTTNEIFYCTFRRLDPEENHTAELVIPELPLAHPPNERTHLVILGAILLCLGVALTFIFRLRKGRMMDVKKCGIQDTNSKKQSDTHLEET

Chain of interaction between PD-1 and PD-L1 (Q9NZQ7 19-238 limits assumed): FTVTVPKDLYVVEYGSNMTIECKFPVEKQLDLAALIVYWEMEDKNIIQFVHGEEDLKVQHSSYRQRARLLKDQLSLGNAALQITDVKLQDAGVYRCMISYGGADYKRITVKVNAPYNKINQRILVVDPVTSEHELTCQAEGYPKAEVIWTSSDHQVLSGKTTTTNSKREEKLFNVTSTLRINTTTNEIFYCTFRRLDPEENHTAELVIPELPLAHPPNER

| SMILES | IC50 [1] [µM] | IC50 (PD-1/PD-L1 interaction) [µM] |
| --- | --- | --- |
| COc1cc(-n2ncc3c(-c4cccc(-c5ccc(CN6CC7(CNC(=O)C7)C6)c(OC)n5)c4Cl)cccc32)cc(OC)c1CN1CC2(CNC(=O)C2)C1 [Example 90, 2-(4-(4-(2-chloro-3-(6-methoxy-5-((7-oxo-2,6-diazaspiro[3.4]octan-2-yl)methyl)pyridin-2-yl)phenyl)-1H-indazol-1-yl)-2,6-dimethoxybenzyl)-2,6-diazaspiro[3.4]octan-7-one] | 0.001 to 0.01 | 0.201 to 2 |
| COc1cc(-n2ccc3c(-c4cccc(-c5cnc(CNC[C@@H]6CCC(=O)N6)c(OC)n5)c4Cl)cccc32)cc(OC)c1CNC[C@@H]1CCC(=O)N1 [Example 65, (S)-5-((((5-(2-chloro-3-(1-(3,5-dimethoxy-4-(((((S)-5-oxopyrrolidin-2-yl)methyl)amino)methyl)phenyl)-1H-indol-4-yl)phenyl)-3-methoxypyrazin-2-yl)methyl)amino)methyl)pyrrolidin-2-one] | 0.001 to 0.01 | 0.201 to 2 |
| COc1cc(-n2ncc3c(-c4cccc(-c5ccc(CN[C@H]6C[C@@H](O)C6)c(OC)n5)c4Cl)cccc32)ncc1CN[C@H](CO)C(=O)O [Example 120, ((6-(4-(2-chloro-3-(5-(((cis-3-hydroxycyclobutyl)amino)methyl)-6-methoxypyridin-2-yl)phenyl)-1H-indazol-1-yl)-4-methoxypyridin-3-yl)methyl)-D-serine] | < 0.001 | 0.201 to 2 |
| COc1cc(-n2ncc3c(-c4cccc(-c5ccc(CN6CC7(CNC(=O)C7)C6)c(OC)n5)c4Cl)cccc32)cc(OC)c1CN1CC(C(C)(C)O)C1 [Example 137, 2-((6-(2-chloro-3-(1-(4-((3-(2-hydroxypropan-2-yl)azetidin-1-yl)methyl)-3,5-dimethoxyphenyl)-1H-indazol-4-yl)phenyl)-2-methoxypyridin-3-yl)methyl)-2,6-diazaspiro[3.4]octan-7-one] | < 0.001 | 0.201 to 2 |
| COc1cc(-n2ccc3c(-c4cccc(-c5ccc(CN6CC(C)(O)C6)c(OC)n5)c4Cl)cccc32)cc(OC)c1CN1CC2(CNC(=O)C2)C1 [Example 84, 2-(4-(4-(2-chloro-3-(5-((3-hydroxy-3-methylazetidin-1-yl)methyl)-6-methoxypyridin-2-yl)phenyl)-1H-indol-1-yl)-2,6-dimethoxybenzyl)-2,6-diazaspiro[3.4]octan-7-one] | < 0.001 | 0.201 to 2 |
| COc1cc(-n2ncc3c(-c4cccc(-c5ccc(CN6CC(C)(C(=O)NC7CC7)C6)c(OC)n5)c4Cl)cccc32)cc(OC)c1CNC[C@H]1C[C@@H](O)C1 [Example 95, 1-((6-(2-chloro-3-(1-(4-((((cis-3-hydroxycyclobutyl)methyl)amino)methyl)-3,5-dimethoxyphenyl)-1H-indazol-4-yl)phenyl)-2-methoxypyridin-3-yl)methyl)-N-cyclopropyl-3-methylazetidine-3-carboxamide] | 0.001 to 0.01 | 0.201 to 2 |
| COc1cc(-n2ncc3c(-c4cccc(-c5ccc(CN6CC7(CNC(=O)C7)C6)c(OC)n5)c4F)cccc32)cc(OC)c1CNC[C@@H]1CCC(=O)N1 [Example 135, (S)-2-((6-(2-fluoro-3-(1-(3,5-dimethoxy-4-((((5-oxopyrrolidin-2-yl)methyl)amino)methyl)phenyl)-1H-indazol-4-yl)phenyl)-2-methoxypyridin-3-yl)methyl)-2,6-diazaspiro[3.4]octan-7-one] | < 0.001 | < 0.2 |
| CCOC(=O)[C@@H](NCc1c(OC)cc(-n2ncc3c(-c4cccc(-c5ccc(CNC[C@@H]6CCC(=O)N6)c(OC)n5)c4Cl)cccc32)cc1OC)[C@@H](C)O [Example 146, (2S,3R)-ethyl 2-((4-(4-(2-chloro-3-(6-methoxy-5-(((((S)-5-oxopyrrolidin-2-yl)methyl)amino)methyl)pyridin-2-yl)phenyl)-1H-indazol-1-yl)-2,6-dimethoxybenzyl)amino)-3-hydroxybutanoate] | < 0.001 | 0.201 to 2 |
| COc1cc(-n2ncc3c(-c4cccc(-c5ccc(CNC[C@@H]6CCC(=O)N6)c(OC)n5)c4Cl)cccc32)cc(OC)c1CN1CC[C@@H](C(=O)O)C1 [Example 117, (R)-1-(4-(4-(2-chloro-3-(6-methoxy-5-(((((S)-5-oxopyrrolidin-2-yl)methyl)amino)methyl)pyridin-2-yl)phenyl)-1H-indazol-1-yl)-2,6-dimethoxybenzyl)pyrrolidine-3-carboxylic acid] | < 0.001 | < 0.2 |
| COc1cc(-n2ncc3c(-c4cccc(-c5ccc(CN6CC(C(C)(C)O)C6)c(OC)n5)c4Cl)cccc32)cc(OC)c1CN1CC2(CNC(=O)C2)C1 [Example 138, 2-(4-(4-(2-chloro-3-(5-((3-(2-hydroxypropan-2-yl)azetidin-1-yl)methyl)-6-methoxypyridin-2-yl)phenyl)-1H-indazol-1-yl)-2,6-dimethoxybenzyl)-2,6-diazaspiro[3.4]octan-7-one] | 0.001 to 0.01 | 0.201 to 2 |
| COc1cc(-n2ncc3c(-c4cccc(-c5ccc(CN6CC7(CNC(=O)C7)C6)c(OC)n5)c4Cl)cccc32)ncc1CNC[C@@H](C)O [Example 110, (R)-2-((6-(2-chloro-3-(1-(5-(((2-hydroxypropyl)amino)methyl)-4-methoxypyridin-2-yl)-1H-indazol-4-yl)phenyl)-2-methoxypyridin-3-yl)methyl)-2,6-diazaspiro[3.4]octan-7-one] | < 0.001 | 0.201 to 2 |
| COc1cc(-n2ccc3c(-c4cccc(-c5ccc(CN6CC(C)(C(=O)O)C6)c(OC)n5)c4Cl)cccc32)cc(OC)c1CNC[C@@H]1CCC(=O)N1 [Example 37] | 0.001 to 0.01 | 0.201 to 2 |
| COc1cc(-n2ncc3c(-c4cccc(-c5ccc(CN[C@H]6C[C@@H](O)C6)c(OC)n5)c4Cl)cccc32)ncc1CN[C@@H](CO)C(N)=O [Example 118, (S)-2-(((6-(4-(2-chloro-3-(5-(((cis-3-hydroxycyclobutyl)amino)methyl)-6-methoxypyridin-2-yl)phenyl)-1H-indazol-1-yl)-4-methoxypyridin-3-yl)methyl)amino)-3-hydroxypropanamide] | < 0.001 | > 2 |
| COc1cc(-n2ccc3c(-c4cccc(NC(=O)c5nc6c(s5)CN(C)CC6)c4C)cccc32)cc(OC)c1CNC[C@@H]1CCC(=O)N1 [Example 67, (S)—N-(3-(1-(3,5-dimethoxy-4-((((5-oxopyrrolidin-2-yl)methyl)amino)methyl)phenyl)-1H-indol-4-yl)-2-methylphenyl)-5-methyl-4,5,6,7-tetrahydrothiazolo[5,4-c]pyridine-2-carboxamide] | 0.001 to 0.01 | > 2 |
| COC(=O)C1CC[C@H](NCc2ccc(-c3cccc(-c4cccc5c4ccn5-c4cc(OC)c(CNC[C@@H]5CCC(=O)N5)c(OC)c4)c3Cl)nc2OC)C1 (some centres unmarked) [Example 50] | 0.01 to 0.1 | > 2 |
| COc1cc(-n2ncc3c(-c4cccc(-c5ccc(CN[C@H]6C[C@@H](O)C6)c(OC)n5)c4Cl)cccc32)cc(OC)c1CN[C@@H](C)CO [Example 119, cis-3-(((6-(2-chloro-3-(1-(4-((((S)-1-hydroxypropan-2-yl)amino)methyl)-3,5-dimethoxyphenyl)-1H-indazol-4-yl)phenyl)-2-methoxypyridin-3-yl)methyl)amino)cyclobutanol] | < 0.001 | 0.201 to 2 |
